Measured values taken from patent US11739078B2, “Methods of inhibiting kinases” (INSILICO MEDICINE IP LIMITED, priority 2019, dated 2023).
Where two headings read alike, the source gives them in different places.

What was measured:
[1] = molecular target: MAP4K4 (h) (Homo sapiens (Human), UniProt O95819); experiment: MAP4K4 in vitro kinase assay (radiometric); format: biochemical; details: read-out: MAP4K4_IC50
Protocol: (§1) (specific activity and concentration as required). The reaction is initiated by the addition of the Mg/ATP mix. After incubation for 40 minutes at room temperature, the reaction is stopped by the addition of phosphoric acid to a concentration of 0.5%.

[2] = molecular target: TNIK (Homo sapiens (Human), UniProt Q9UKE5); experiment: TNIK enzymatic assay (radiometric kinase inhibition); format: biochemical
Sequence of TNIK (Q9UKE5 whole entry): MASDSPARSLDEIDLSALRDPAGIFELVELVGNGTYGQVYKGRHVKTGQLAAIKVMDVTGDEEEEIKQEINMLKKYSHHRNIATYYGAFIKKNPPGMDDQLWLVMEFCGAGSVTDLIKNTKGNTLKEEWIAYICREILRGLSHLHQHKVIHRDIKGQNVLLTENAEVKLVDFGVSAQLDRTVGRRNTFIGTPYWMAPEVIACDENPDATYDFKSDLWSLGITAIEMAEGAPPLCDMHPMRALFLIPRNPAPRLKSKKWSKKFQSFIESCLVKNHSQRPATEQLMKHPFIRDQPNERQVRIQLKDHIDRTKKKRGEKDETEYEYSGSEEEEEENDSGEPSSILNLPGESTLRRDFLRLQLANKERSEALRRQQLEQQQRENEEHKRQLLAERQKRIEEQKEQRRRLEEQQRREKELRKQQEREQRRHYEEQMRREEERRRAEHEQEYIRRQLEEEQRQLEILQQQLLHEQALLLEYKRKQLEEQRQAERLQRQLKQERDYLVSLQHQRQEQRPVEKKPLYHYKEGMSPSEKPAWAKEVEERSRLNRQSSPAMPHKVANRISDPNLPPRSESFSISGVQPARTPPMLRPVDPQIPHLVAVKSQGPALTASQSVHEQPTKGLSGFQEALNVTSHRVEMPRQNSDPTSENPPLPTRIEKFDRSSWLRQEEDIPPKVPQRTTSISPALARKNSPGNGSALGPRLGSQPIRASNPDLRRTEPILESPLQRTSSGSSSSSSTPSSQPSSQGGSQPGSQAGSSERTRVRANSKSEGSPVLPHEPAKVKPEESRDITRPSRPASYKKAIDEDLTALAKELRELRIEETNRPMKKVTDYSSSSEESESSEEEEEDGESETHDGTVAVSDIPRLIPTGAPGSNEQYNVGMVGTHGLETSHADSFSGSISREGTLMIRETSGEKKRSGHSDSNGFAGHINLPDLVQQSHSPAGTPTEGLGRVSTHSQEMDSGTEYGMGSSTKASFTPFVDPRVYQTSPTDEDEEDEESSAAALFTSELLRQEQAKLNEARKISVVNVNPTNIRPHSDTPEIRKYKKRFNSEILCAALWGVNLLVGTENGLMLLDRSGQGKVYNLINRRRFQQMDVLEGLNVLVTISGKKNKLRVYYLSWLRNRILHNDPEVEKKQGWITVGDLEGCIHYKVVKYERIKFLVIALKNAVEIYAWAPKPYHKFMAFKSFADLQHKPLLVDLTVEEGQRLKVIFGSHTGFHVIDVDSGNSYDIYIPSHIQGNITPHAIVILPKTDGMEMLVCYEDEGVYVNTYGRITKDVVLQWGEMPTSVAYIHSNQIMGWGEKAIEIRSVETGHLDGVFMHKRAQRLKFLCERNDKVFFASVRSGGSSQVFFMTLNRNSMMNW
Protocol: as §1, with “The compounds were studied for function as TNIK inhibitors to generate the data of Table 1. […] (specific” for “(specific”

[3] = TNIK enzymatic assay, Table 1, read-out: IC50

Sequence of MAP4K4 (h) (O95819 whole entry): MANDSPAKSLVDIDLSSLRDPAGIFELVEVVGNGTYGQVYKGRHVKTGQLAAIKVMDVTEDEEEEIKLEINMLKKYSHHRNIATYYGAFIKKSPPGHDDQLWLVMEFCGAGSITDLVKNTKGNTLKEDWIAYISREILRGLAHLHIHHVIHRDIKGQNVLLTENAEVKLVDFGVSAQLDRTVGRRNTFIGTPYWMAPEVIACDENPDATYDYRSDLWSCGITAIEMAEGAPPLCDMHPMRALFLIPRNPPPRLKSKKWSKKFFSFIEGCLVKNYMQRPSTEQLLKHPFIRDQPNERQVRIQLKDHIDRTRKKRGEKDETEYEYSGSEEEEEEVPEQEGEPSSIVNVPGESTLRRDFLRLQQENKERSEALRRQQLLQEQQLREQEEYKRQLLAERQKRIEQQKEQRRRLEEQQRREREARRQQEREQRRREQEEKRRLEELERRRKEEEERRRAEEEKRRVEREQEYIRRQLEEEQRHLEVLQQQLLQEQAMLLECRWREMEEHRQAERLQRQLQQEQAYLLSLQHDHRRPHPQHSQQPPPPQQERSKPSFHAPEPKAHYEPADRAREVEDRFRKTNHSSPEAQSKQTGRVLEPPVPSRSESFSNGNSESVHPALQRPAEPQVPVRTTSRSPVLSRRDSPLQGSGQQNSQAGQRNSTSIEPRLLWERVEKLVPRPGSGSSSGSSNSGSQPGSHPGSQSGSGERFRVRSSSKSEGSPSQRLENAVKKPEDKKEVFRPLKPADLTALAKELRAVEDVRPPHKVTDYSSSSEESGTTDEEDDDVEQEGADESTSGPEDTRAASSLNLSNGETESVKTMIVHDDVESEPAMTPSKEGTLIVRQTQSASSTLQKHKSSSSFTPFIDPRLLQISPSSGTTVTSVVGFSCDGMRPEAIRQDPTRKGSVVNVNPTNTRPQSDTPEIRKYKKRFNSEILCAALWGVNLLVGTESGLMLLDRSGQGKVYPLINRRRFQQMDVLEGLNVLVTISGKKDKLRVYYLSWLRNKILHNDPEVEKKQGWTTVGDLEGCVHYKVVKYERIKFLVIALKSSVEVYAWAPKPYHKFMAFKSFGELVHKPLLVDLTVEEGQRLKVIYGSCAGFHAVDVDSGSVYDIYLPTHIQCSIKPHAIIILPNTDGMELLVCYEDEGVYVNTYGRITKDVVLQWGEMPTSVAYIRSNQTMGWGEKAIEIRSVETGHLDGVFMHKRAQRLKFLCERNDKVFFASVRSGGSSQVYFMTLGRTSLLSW

| Compound | IC50 [1] [nM] | IC50 [2, 3] [nM] | IC50 ([2]; read-out: TNIK_IC50) [nM] |
| --- | --- | --- | --- |
| Cc1ccccc1NC(=O)c1ccc(-c2c(-c3ccc(F)cc3)ncn2C2CCCCC2)o1 [Compound 65, 5-(1-cyclohexyl-4-(4-fluorophenyl)-1H-imidazol-5-yl)-N-(o-tolyl)furan-2-carboxamide] | 320 | 152 | 152 |
| Cc1cccc(NC(=O)c2ccc(-c3c(-c4ccc(F)cc4)ncn3C3CCCC3)o2)c1 [Compound 48, 5-(1-cyclopentyl-4-(4-fluorophenyl)-1H-imidazol-5-yl)-N-(m-tolyl)furan-2-carboxamide] | 163 | 40 | 40 |
| COc1cccc(NC(=O)c2ccc(-c3c(-c4ccc(C)cc4)ncn3C3CCCCC3)o2)c1 [Compound 4, 5-(1-cyclohexyl-4-(p-tolyl)-1H-imidazol-5-yl)-N-(3-methoxyphenyl)furan-2-carboxamide] | > 1000 | 9320 | 9320 |
| COc1cc(NC(=O)c2ccc(-c3c(-c4ccc(C)cc4)ncn3C3CCCCC3)o2)cc(OC)c1 [Compound 6, 5-(1-cyclohexyl-4-(p-tolyl)-1H-imidazol-5-yl)-N-(3,5-dimethoxyphenyl)furan-2-carboxamide] | > 1000 | 9730 | 9730 |
| O=C(Nc1ccccc1C(F)(F)F)c1ccc(-c2c(-c3ccc(F)cc3)ncn2C2CCCC2)o1 [Compound 10, 5-(1-cyclopentyl-4-(4-fluorophenyl)-1H-imidazol-5-yl)-N-(2-(trifluoromethyl)phenyl)furan-2-carboxamide] | 30.4 | 10 | < 10 |
| COc1ccc(NC(=O)c2ccc(-c3c(-c4ccc(F)cc4)ncn3C3CCCC3)o2)c(OC)c1 [Compound 18, 5-(1-cyclopentyl-4-(4-fluorophenyl)-1H-imidazol-5-yl)-N-(2,4-dimethoxyphenyl)furan-2-carboxamide] | 4.05 | < 10 | 2.33 |
| CC(C)c1ccc(NC(=O)c2ccc(-c3c(-c4ccc(F)cc4)ncn3C3CCCC3)o2)cc1 [Compound 38, 5-(1-cyclopentyl-4-(4-fluorophenyl)-1H-imidazol-5-yl)-N-(4-isopropylphenyl)furan-2-carboxamide] | 168 | 46 | 46 |
| Cc1ccc(NC(=O)c2ccc(-c3c(-c4ccc(F)cc4)ncn3C3CCCCC3)o2)cc1Cl [Compound 66, N-(3-chloro-4-methylphenyl)-5-(1-cyclohexyl-4-(4-fluorophenyl)-1H-imidazol-5-yl)furan-2-carboxamide] | > 1000 | 531 | 531 |
| O=C(Nc1cc(F)ccc1F)c1ccc(-c2c(-c3ccc(F)cc3)ncn2C2CCCC2)o1 [Compound 3, 5-(1-cyclopentyl-4-(4-fluorophenyl)-1H-imidazol-5-yl)-N-(2,5-difluorophenyl)furan-2-carboxamide] | 24.6 | < 10 | 3.82 |
| O=C(Nc1cccc(F)c1)c1ccc(-c2c(-c3ccc(F)cc3)ncn2C2CCCC2)o1 [Compound 25, 5-(1-cyclopentyl-4-(4-fluorophenyl)-1H-imidazol-5-yl)-N-(3-fluorophenyl)furan-2-carboxamide] | 83.4 | 59 | 59 |
| Cc1cccc(NC(=O)c2ccc(-c3c(-c4ccc(F)cc4)ncn3C3CCCCC3)o2)c1C [Compound 59, 5-(1-cyclohexyl-4-(4-fluorophenyl)-1H-imidazol-5-yl)-N-(2,3-dimethylphenyl)furan-2-carboxamide] | > 1000 | 562 | 562 |
| Cc1cccc(NC(=O)c2ccc(-c3c(-c4ccc(F)cc4)ncn3C3CCCC3)o2)c1C [Compound 20, 5-(1-cyclopentyl-4-(4-fluorophenyl)-1H-imidazol-5-yl)-N-(2,3-dimethylphenyl)furan-2-carboxamide] | 129 | 136 | 136 |
| COc1ccccc1NC(=O)c1ccc(-c2c(-c3ccc(F)cc3)ncn2C2CCCC2)o1 [Compound 50, 5-(1-cyclopentyl-4-(4-fluorophenyl)-1H-imidazol-5-yl)-N-(2-methoxyphenyl)furan-2-carboxamide] | 4.46 | < 10 | 3.86 |
| COc1ccc(NC(=O)c2ccc(-c3c(-c4ccc(C)cc4)ncn3C3CCCCC3)o2)cc1 [Compound 5, 5-(1-cyclohexyl-4-(p-tolyl)-1H-imidazol-5-yl)-N-(4-methoxyphenyl)furan-2-carboxamide] | > 1000 | 2410 | 2410 |

Other lines, results leading:

| IC50 [1] [nM] | IC50 [2, 3] [nM] | IC50 ([2]; read-out: TNIK_IC50) [nM] | Compound |
| --- | --- | --- | --- |
| 22.2 | 16 | 16 | COc1ccccc1NC(=O)c1ccc(-c2c(-c3ccc(F)cc3)ncn2C2CCCCC2)o1 [Compound 79, 5-(1-cyclohexyl-4-(4-fluorophenyl)-1H-imidazol-5-yl)-N-(2-methoxyphenyl)furan-2-carboxamide] |
| 50.5 |  | 26.3 | O=C(Nc1ccncn1)c1ccc(-c2c(-c3ccc(F)cc3)ncn2C2COCC2(F)F)o1 (stereo not shown) [Compound A-40, 5-(1-(4,4-difluorotetrahydrofuran-3-yl)-4-(4-fluorophenyl)-1H-imidazol-5-yl)-N-(pyrimidin-4-yl)furan-2-carboxamide] |
| 638 | 238 | 238 | CSc1cccc(NC(=O)c2ccc(-c3c(-c4ccc(F)cc4)ncn3C3CCCCC3)o2)c1 [Compound 72, 5-(1-cyclohexyl-4-(4-fluorophenyl)-1H-imidazol-5-yl)-N-(3-(methylthio)phenyl)furan-2-carboxamide] |
| 431 | 191 | 191 | O=C(Nc1ccc(F)c(F)c1)c1ccc(-c2c(-c3ccc(F)cc3)ncn2C2CCCCC2)o1 [Compound 75, 5-(1-cyclohexyl-4-(4-fluorophenyl)-1H-imidazol-5-yl)-N-(3,4-difluorophenyl)furan-2-carboxamide] |
| 231 |  | 124 | O=C(Nc1cc[nH]c(=O)c1)c1ccc(-c2c(-c3ccc(F)cc3)ncn2C2COCC2(F)F)o1 (stereo not shown) [Compound A-42, 5-(1-(4,4-difluorotetrahydrofuran-3-yl)-4-(4-fluorophenyl)-1H-imidazol-5-yl)-N-(2-oxo-1,2-dihydropyridin-4-yl)furan-2-carboxamide] |
| 547 |  | 480 | O=C(Nc1ccc(-c2c(-c3ccc(F)cc3)ncn2C2CCCC2)o1)c1ccccc1F [Compound 95, N-(5-(1-cyclopentyl-4-(4-fluorophenyl)-1H-imidazol-5-yl)furan-2-yl)-2-fluorobenzamide] |
| 247 | 77 | 77 | Cc1ccc(NC(=O)c2ccc(-c3c(-c4ccc(F)cc4)ncn3C3CCCCC3)o2)c(C)c1 [Compound 67, 5-(1-cyclohexyl-4-(4-fluorophenyl)-1H-imidazol-5-yl)-N-(2,4-dimethylphenyl)furan-2-carboxamide] |
|  |  | 1160 | O=C(Nc1cc[nH]c(=O)c1)c1ccc(-c2c(-c3ccc(F)cc3)ncn2C2COC[C@@H]2F)o1 (mixture of isomers) [Compound A-57, rac-5-(4-(4-fluorophenyl)-1-((4R)-4-fluorotetrahydrofuran-3-yl)-1H-imidazol-5-yl)-N-(2-oxo-1,2-dihydropyridin-4-yl)furan-2-carboxamide] |
